Test results as given in patent US4332805A, “Decahydroquinolinol derivatives and methods of treating cardiac arrythmias or inducing local anaesthesia with them” (priority 1979, dated 1982).
Where a name gives a salt, the structure may show the parent alone. Read-outs that look alike come from different tables or passages of the source.

What was measured:
[1] = protection against toxic effects of epinephrine (antiadrenergic properties); format: in vivo; conditions: mice, 50 mg/kg intragastric, 30 minutes before 3 mg/kg i.v. epinephrine
Method: Tests carried out with Compound A have shown that a dose of 50 mg/kg administered by intragastric route to mice 30 minutes before the intravenous injection of 3 mg/kg of epinephrine gave no protection against the toxic effects of this catecholamine.

[2] = LAWSON test: protection against chloroform-induced ventricular fibrillation; format: in vivo, mice; conditions: Mus musculus, po
Method: The arrhythmia was induced, in this test, by inhalation of chloroform until breathing stopped.
For each dose of the substance to be studied, batches of 10 female mice, each of about 20 g, were used. These mice had been fasting for 18 hours before the test. A batch of 10 animals was used as control group.
A dose of the compound to be studied was first administered by intragastric route except to the controls which only received the solvent used with the compound in question. Thirty minutes later, the animals were placed under a dome-shaped receptacle containing a high concentration of chloroform obtained by means of a strongly impregnated pad.
The animals were removed when totally asphyxiated (about 2 minutes later), the thorax was rapidly opened and the ventricular rhythm observed. The dose of the compound under study which protected 50% of the animals against ventricular fibrillation was then determined.
This protective dose is expressed as AD50 in mg/kg in the following Table. […]
Another comparative test was performed under the same conditions with
several compounds included within the scope of U.S. Pat. No. 3,882,129 at
the single dose of 100 mg/kg by intragastric route.
The following results were obtained which are expressed in percentage of protection obtained against the arrhythmic effect at the studied dose: […]

[3] = motor activity (spontaneous motility) / sedation; format: in vivo, mouse
[4] = convulsant dose; format: in vivo; conditions: mice per os; dog i.v.
[5] = arrhythmia-inducing and lethal dose in continuous venous perfusion; format: in vivo; conditions: anaesthetized dog
[6] = local anaesthesia, CHANCE and LOBSTEIN technique (eyelid closure after touching cornea); format: in vivo, guinea-pig; conditions: for local anaesthesia, % of animals / local anaesthesia, % of animals protected: guinea-pig eye; for local anaesthesia, % of animals: 0.1% solution, 5 minutes after administration; for local anaesthesia, % of animals protected: 0.5% solution
Method: In this way, the percentage of locally anaesthetized animals were determined with respect to both the dose of compound given and the length of time elapsing after administration.

[7] = LAWSON test: protection against chloroform-induced ventricular fibrillation; format: in vivo; conditions: mice, 75 mg/kg intragastric
[8] = ventricular fibrillation provoked by chloroform or by calcium chloride; conditions: in vivo
[9] = acute toxicity; conditions: rat, in vivo
Excerpt: Acute toxicity tests were undertaken with Compound A on mice and rats.

[10] = acute toxicity; conditions: mouse, in vivo, mice
[11] = hypotensive activity / myocardial contractility; conditions: in vivo
[12] = 0.5 h, female mice, intragastric, 30 minutes before chloroform, salts (hydrochloride), read-out: AD50 (dose protecting 50% of the animals against ventricular fibrillation)
[13] = 30 minutes after administration

NC(=O)O[C@@H]1CCN(CCCOc2ccc(F)cc2)[C@H]2CCCC[C@H]12 (relative stereo) [Compound A, 4-Carbamoyloxy-1-[3-(4-fluoro-phenoxy)-propyl]-trans-decahydroquinoline (axial form)]
protection against the toxic effects of epinephrine [1]: no protection | ED50 [2, 12]: 45 mg/kg | ED50 ([2]; mice, per os, read-out: Antiarrhythmic dose (LAWSON AD50 test)): 45 mg/kg | sedative / antiadrenergic at antiarrhythmic doses ([3]; mice, 50 mg/kg intragastric): neither sedative nor antiadrenergic at antiarrhythmic doses | depression of spontaneous motility ([3]; mice, 50 mg/kg intragastric, 30 minutes later): no depression of spontaneous motility | motor activity ([3]; mouse): does not modify motor activity | safety margin between effective antiarrhythmic dose and convulsant dose [4]: good safety margin | lethal dose [5]: 84.1 ± 7.1 mg/kg | TD50 ([5]; in vivo, iv): 80.6 ± 6 mg/kg | local anaesthetic activity compared with lidocaine ([6]; guinea-pig): more active than lidocaine as a local anaesthetizing agent and exerts its effects over a longer period of time | local anaesthesia, % of animals [6]: 58% | local anaesthesia, % of animals protected [6, 13]: 35% | % of protection [7, 13]: 80% | % of protection ([7]; 60 minutes after administration): 65% | % of protection ([7]; 120 minutes after administration): 60% | % of protection ([7]; 180 minutes after administration): 45% | % of protection ([7]; 240 minutes after administration): 30% | protection against ventricular fibrillation provoked by chloroform or by calcium chloride [8]: provides protection against ventricular fibrillation provoked by chloroform or by calcium chloride | LD50 ([9]; iv): 47 mg/kg | LD50 ([9]; po): > 2000 mg/kg | LD50 ([10]; po, intragastric): 750 mg/kg | LD50 ([10]; intravenous): 42.5 mg/kg | hypotensive activity and depression of myocardial contractility [11]: neither a hypotensive agent since its mechanism of action does not result from antiadrenergic properties nor is it a depressant of myocardial contractility

O=C(Nc1ccccc1)O[C@@H]1CCN(CCCOc2ccc(F)cc2)[C@H]2CCCC[C@H]12 (relative stereo) [phenyl, 3, O, 4-fluoro-phenyl, axial, 1-[3-(4-Fluoro-phenoxy)-propyl]-4-(N-phenylcarbamoyloxy)-trans-decahydroquinoline hydrochloride (axial form)]
ED50 [2, 12]: > 100 mg/kg

CCN(CC)CC(=O)Nc1c(C)cccc1C [lidocaine, reference compound]
ED50 ([2]; 0.5 h, read-out: AD50 (dose protecting 50% of the animals against ventricular fibrillation)): 35 mg/kg | local anaesthesia, % of animals [6]: 26% | local anaesthesia, % of animals protected ([6]; 15 minutes after administration): 35%
